“Also recorded” adds a separate entry of the source.
Key:
[1] = tested on: Human aortic smooth muscle cells; experiment: Smooth muscle cell proliferation assay (anti-proliferation assay, perlecan); type: cell-based
cells = experiment: Cytotoxicity / lactate dehydrogenase assay and visual observation of cells; type: cell-based; conditions: for Toxicity: toxic or cause cell death
Experimental: Assays for determining the activity of compounds capable of cytotoxic activity include those taught in herein and others that are well known in the art. In general, to determine if there is cytotoxic activity associated with a compound, cells of a particular type, in a growing stage or a quiescient stage, are treated with the compound of interest. Various parameters of cell death or cessation are used to measure the effects of the compound. For example, the amount of nucleic acid or protein synthesis can be measured or visual observation of the state of the cells, such as release from the substrate, can be used to measure the state of the cells.
An appropriate number of cells are plated in four 96-well plates, one plate for “day 0” and three plates for days 1–3. Cells are treated with at least one compound of the present invention in varying concentrations with and without the apoptosis inducer cisplatin (2 μM) (“+cis” or “−cis”). Unteated cells are also assayed with and without cisplatin. After transfection, the plates are incubated at 37° C. overnight.
An appropriate number of cells are plated in four 96-well plates, one plate for “day 0” and three plates for days 1–3. Cells are treated with at least one compound of the present invention in varying concentrations. The negative control cells have normal media conditions, a duplicate set of wells is treated with the composition in which the compound is provided, but there is no added compound and the positive control cells are treated with the apoptosis inducer cisplatin (2 μM). All of the cells are transfected with a vector having a promoter that is responsive to apoptosis conditions. When apoptosis occurs, the promoter is turned on and the lactic dehydrogenase gene is activated and the enzyme protein is made and active. Activity is easily detected with a color change. After transfection, the plates are incubated at 37° C. overnight.
About 8 mls of warmed alpha MEM LDH lysis buffer (2% Triton X100) and about 8 mls of culture media (½ dilution) are combined. Two 96-well v-bottom plates are prepared, one labeled “lysis” and one labeled “supernatant.” To lyse the cells, about 200 μl Alpha MEM lysis buffer (diluted ½) is added to one test plate from which the supernatant has been removed and added to the plate labeled supernatant. After mixing, about 200 μl of lysed cells are transferred to the lysis plate. Both the lysis and supernatant plates are centrifuged at about 1600 rpm for about 10 min. After centrifugation, about 100 μl of both the supernatant or lysate is transferred to corresponding 96-well flat-bottomed plates.
The assay for cytotoxicity uses the Cytotoxicity Detection Kit (LDH) from Roche Diagnostics Corp. (Indianapolis, Ind.). Using the directionts provided, the dye solution is mixed and added each well of the lysate and supernatant plate and incubated for up to 20–25 min at 15–25° C. in the dark.

IL6 = experiment: Inflammation Data of Table 8: IL6 production compared to cells that did not receive compound (stimulus AGE or TNF not given); type: cell-based
Description: Additional bioactivity data for compounds of the present invention are presented in Table 8, where compounds that have at least the activity of effecting cellular proliferation or at least the activity of modulating inflammation activity, as measured by the assays taught herein, are provided. […] The inclusion of compounds in the categories of the Tables disclosed herein, including this Table, is not to be seen as limiting, in that compounds included in such Tables have at least the activity shown for inclusion in the Table and may have more or other activities. Nor are the Tables to be seen as limiting in that these are the only compounds disclosed herein that have that activity, representative compounds are shown in the Tables that have at least that particular activity for inclusion in the Table. One or more compounds disclosed herein have at least an activity that has utility in treatment of disease states. Note that any hydrogen atoms that are required for any atom to attain its usual valence in a structure presented in Table 8, whether a carbon atom or a heteroatom, should be inferred if it is not specifically indicated.

IL-6 [2] = experiment: AGE (G-HSA)-induced inflammatory response determined by IL-6 ELISA in HAEC; type: cell-based, human; conditions: Homo sapiens; for activity at 10 µM: 24 h, Compds tested @ 10 uM, IL6, read-out: % IL6 production compare to AGE stimulation of IL6 (100%)
Procedure, shortened: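 Human aortic endothelial cells grown to ≥90% confluence, then treated with compounds and stimuli in serum-free medium with 0.2% albumin. Secreted IL-6 in collected media measured by sandwich ELISA (2 ug/ml capture, 200 ng/ml biotinylated detection antibody, streptavidin-HRP), read at 450 nm.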

IL-6 [3] = experiment: TNF-α-induced IL-6 production determined by IL-6 ELISA in HAEC; type: cell-based, human; conditions: Homo sapiens, 24 h; Compds tested @ 10 uM; HAEC, IL6; read-out: % IL6 production compare to TNF stimulation of IL6 (100%)
[4] = observed in the proliferation assay

## CCc1occc(=O)c1Oc1nc(Nc2ccc(OC)c(Cl)c2)nc(NC2CCCCCC2)n1
[1]; 5 & 10 uM screens
  Proliferation Data (result in words): Not active at 5 & 10 uM
cells; at 10 uM
  cell death under Inflammation Data: 20%
IL6; at 10 uM
  inhibition at 10 µM: 48%

## COc1ccc(Nc2nc(NC3CCCCCC3)nc(Oc3ccccc3F)n2)cc1Cl [drawing 1000]
[1]; concentration not given
  Proliferation Data (result in words): Not active
IL6; concentration not given
  Inflammation Data (result in words): Not Active

## COc1ccc(Nc2nc(NC3CCCCCC3)nc(NC3CCN(Cc4ccccc4)CC3)n2)cc1F
cells; at 5 uM
  cell death under Inflammation Data: 25%
cells; at 10 uM
  cell death under Inflammation Data: total cell death
cells; [4]
  cell morphology change / cell death observed under Proliferation Data (words with concentration): cell bluntingat 3 uM; also recorded: rounding at 5uM
IL6; at 5 uM
  inhibition at 5 µM: 43%
IL6; at 10 uM
  inhibition at 10 µM: 97%

## CCN1CCCC1CNc1nc(Nc2ccc(OC)c(F)c2)nc(NC2CC2)n1 (stereo not shown)
[1]; concentration not given
  Proliferation Data (result in words): Not active
IL6; at 10 uM
  inhibition at 10 µM: 23%

## Oc1ccc(Nc2nc(Cl)nc(NC3CCCCCC3)n2)cc1Cl
[1]; concentration not given
  Proliferation Data (result in words): Not active
IL6; at 5 uM
  inhibition at 5 µM: 25%
IL6; at 10 uM
  inhibition at 10 µM: 25%

## COc1ccc(Nc2nc(NC3CC3)nc(N(C)C3CCN(C)CC3)n2)cc1F
[1]; concentration not given
  Proliferation Data (result in words): Not active
IL6; at 10 uM
  inhibition at 10 µM: 25%

## COc1ccc(Nc2nc(Cl)nc(NC3CC3)n2)cc1F
[1]; concentration not given
  Proliferation Data (result in words): Not active
IL6; at 10 uM
  inhibition at 10 µM: 36%

## CN1CCC(N(C)c2nc(Nc3ccc(O)c(Cl)c3)nc(NC3CCCCCC3)n2)CC1 [drawing 1008]
cells; 10 uM
  cell death under Inflammation Data: total cell death
cells; human, 24 h
  cell morphology change / cell death observed under Proliferation Data (words with concentration): cell bluntingat 3 to 10 uM
IL6; at 5 uM
  inhibition at 5 µM: 64%
IL6; at 10 uM
  inhibition at 10 µM: 84%

## COc1ccc(Nc2nc(NCCN(C)C)nc(NC3CCCCCC3)n2)cc1F [Compound 93, N^2-cycloheptyl-N^4-[2-(dimethylamino)ethyl]-N^6-(3-fluoro-4-methoxyphenyl)-1,3,5-triazine-2,4,6-triamine]
IL-6 [2]
  activity at 10 µM: 6%
IL-6 [2]; IL6, unit inferred, read-out: IC50 (AGE stimulation of IL6)
  IC50: 3.36 µM
cells
  Toxicity: toxic
IL-6 [3]
  activity at 10 µM: 13%

## CN(c1nc(Nc2ccc(O)cc2)nc(NC2CCCCCC2)n1)C1CCNCC1
cells; 5 uM
  cell death under Inflammation Data: 20%
cells; 10 uM
  cell death under Inflammation Data: total cell death
IL6; at 5 uM
  inhibition at 5 µM: 50%

## COc1ccc(Nc2nc(NC3CCCCCC3)nc(OCc3cccc(C)n3)n2)cc1Cl
[1]; concentration not given
  Proliferation Data (result in words): Not active
IL6; at 10 uM
  inhibition at 10 µM: 60%

## COc1ccc(Nc2nc(NC3CCCCCC3)nc(OCC3CCCN3)n2)cc1Cl (stereo not shown) [drawing 994]
[1]; 5 & 10 uM screens
  Proliferation Data (result in words): Not active at 5 & 10 uM
IL6; at 10 uM
  inhibition at 10 µM: 75%

## COc1ccc(Nc2nc(NC3CCCCCC3)nc(OC(C)C)n2)cc1Cl [drawing 993]
[1]; concentration not given
  Proliferation Data (result in words): Not active
IL6; at 10 uM
  inhibition at 10 µM: < 25%

## CCN1CCCC1CNc1nc(Nc2cnc3ccccc3c2)nc(NC2CCCCCC2)n1 (stereo not shown) [Compound 3, N^2-cycloheptyl-N^4-[(1-ethyl-2-pyrrolidinyl)methyl]-N^6-(3-quinolinyl)-1,3,5-triazine-2,4,6-triamine]
IL-6 [2]
  activity at 10 µM: 1%
cells
  Toxicity: toxic

## COc1ccc(Nc2nc(NC3CCCCCC3)nc(NC3CCN(Cc4ccccc4)CC3)n2)cc1Cl [drawing 1010]
cells; at 5 uM
  cell death under Inflammation Data: 20%
cells; at 10 uM
  cell death under Inflammation Data: > 50%
cells; [4]
  cell morphology change / cell death observed under Proliferation Data (words with concentration): cell blunting at 1 uM; also recorded: rounding at 5 uM
IL6; at 5 uM
  inhibition at 5 µM: 37%
IL6; at 10 uM
  inhibition at 10 µM: 41%

## CCN1CCCC1CNc1nc(Nc2ccc(OC)c(F)c2)nc(Nc2ccc(OC)c(F)c2)n1 (stereo not shown)
IL6; at 5 uM
  inhibition at 5 µM: 25%
IL6; at 10 uM
  inhibition at 10 µM: 35%

## CN1CCC(N(C)c2nc(Nc3ccc(OCc4ccccc4)c(Cl)c3)nc(NC3CCCCCC3)n2)CC1
cells; 5 uM
  cell death under Inflammation Data: 30%
cells; 10 uM
  cell death under Inflammation Data: totaldeath
IL6; at 1 uM
  Inflammation Data (result in words): Not active

## Oc1ccc(Nc2nc(Cl)nc(Cl)n2)cc1Cl
[1]; concentration not given
  Proliferation Data (result in words): Not active
IL6; at 10 uM
  inhibition at 10 µM: 35%

## COc1ccc(Nc2nc(NC3CCCCCC3)nc(OC3CCCN(C(C)=O)C3)n2)cc1Cl (stereo not shown) [drawing 992]
[1]; 5 & 10 uM screens
  Proliferation Data (result in words): Not active at 5 & 10 uM
IL6; at 10 uM
  Inflammation Data, inhibition: complete inhibition at 10 uM

## COc1ccc(Nc2nc(NC3CCCCCC3)nc(NC3CCNCC3)n2)cc1
cells; at 5 uM
  cell death under Inflammation Data: 20%
cells; at 10 uM
  cell death under Inflammation Data: > 50%
IL6; at 5 uM
  inhibition at 5 µM: 69%
IL6; at 10 uM
  inhibition at 10 µM: 88%

## COc1ccc(Nc2nc(NC3CCCCCC3)nc(OCCOc3ccccc3F)n2)cc1Cl
[1]; concentration not given
  Proliferation Data (result in words): Not active
IL6; concentration not given
  Inflammation Data (result in words): Not active

## CCN1CCCC1CNc1nc(Nc2cccc3cccnc23)nc(NC2CCCCCC2)n1 (stereo not shown) [Compound 5, N^2-cycloheptyl-N^4-[(1-ethyl-2-pyrrolidinyl)methyl]-N^6-(8-quinolinyl)-1,3,5-triazine-2,4,6-triamine]
cells
  Toxicity: toxic

## COc1ccc(Nc2nc(Cl)nc(Nc3ccc(OC)c(F)c3)n2)cc1F
[1]; concentration not given
  Proliferation Data (result in words): Not active
IL6; at 5 uM
  Inflammation Data, inhibition: noeffect
IL6; at 10 uM
  inhibition at 10 µM: 20%

## COc1ccc(Nc2nc(NC3CCCCCC3)nc(N3CCSCC3)n2)cc1Cl [drawing 999]
[1]; concentration not given
  Proliferation Data (result in words): Not active
IL6; concentration not given
  Inflammation Data (result in words): Not Active

## CN(c1nc(Nc2ccc(OCc3ccccc3)c(Cl)c2)nc(NC2CCCCCC2)n1)C1CCNCC1
cells; 5 uM
  cell death under Inflammation Data: 50%
cells; 10 uM
  cell death under Inflammation Data: total cell death
IL6; at 1 uM
  Inflammation Data (result in words): not active
IL6; at 5 uM
  inhibition at 5 µM: 58%

## COc1ccc(Nc2nc(NC3CCCCCC3)nc(OC3CCN(C)CC3)n2)cc1Cl
cells; at 10 uM
  cell death under Inflammation Data: total cell death
cells; [4]
  cell morphology change / cell death observed under Proliferation Data (words with concentration): rounding at 5 & 10 uM
IL6; at 10 uM
  inhibition at 10 µM: 95%

## CCN1CCCC1CNc1nc(Nc2ccc(Oc3ccccc3)cc2)nc(NC2CCCCCC2)n1 (stereo not shown) [Compound 36, N^2-cycloheptyl-N^4-[(1-ethyl-2-pyrrolidinyl)methyl]-N^6-(4-phenoxyphenyl)-1,3,5-triazine-2,4,6-triamine]
cells
  Toxicity: toxic

## CCN1CCCC1CNc1nc(Nc2ccc(F)c(F)c2)nc(NC2CCCCCC2)n1 (stereo not shown) [Compound 8, N^2-cycloheptyl-N^4-(3,4-difluorophenyl)-N^6-[(1-ethyl-2-pyrrolidinyl)methyl]-1,3,5-triazine-2,4,6-triamine]
cells
  Toxicity: toxic

Reference: patent US7169785B2, “Methods and compositions of novel triazine compounds” (Reddy US Therapeutics, Inc., priority 2001, dated 2007)
